Measurements taken from patent US10828315B2 (Madrigal Pharmaceuticals, Inc., priority 2013, dated 2020).
Converted amounts (≈) assume the structure as drawn. “Also recorded” adds a separate entry of the source. Where two headings read alike, the source gives them in different places.

Tests used:
[1] = Artificial membrane permeability assay (PAMPA); details: same protocol, second table
HER2 = HER2 degradation assay with BT-474 cell line (Example 12, FACS); assay type: cell-based, human
[2] = Solubility of SDC-TRAP-0063 (ganetespib placebo formulation, PEG-300); assay type: physicochemical; details: for solubility at 1 h / solubility at 1 day / solubility at 3 days / solubility at 7 days: ganetespib placebo formulation, organic solvent or mixture, thermodynamic from solid
Description: Concentration of dissolved drug was determined by HPLC assay method at 1 hr, 1 day, 3 days and 7 days.

[3] = system: H2AX phosphorylation, HSP70, EGFR, MET; test: Pharmacodynamics in CRC (HCT-116) xenograft tumors; assay type: in vivo, mouse
[4] = system: HCT-116 human colorectal xenografts; test: Mouse xenograft efficacy in HCT-116 colon cancer model; details: IV
Description: The cells were maintained in vitro as a monolayer culture in McCoy's 5a Medium. Fetal bovine serum was then be added to the medium. The final concentration of fetal bovine serum was 10%. Cells were cultured at 37° C. and 5% CO2. The tumor cells were routinely sub-cultured twice weekly by trypsin-EDTA treatment. Cells in an exponential growth phase were harvested and counted for tumor inoculation.
100 18-22 g, 5-7 week old, female BALB/cA nude mice were inoculated with the HCT 116 cells (2.0×10^6, 1:1 with Matrigel) subcutaneously on the back of each animal (0.1 mL/mouse). When the average tumor volume reached about 150-250 mm^3, 60 of the inoculated mice was selected based on tumor growth and randomly grouped into 6 treatment groups (10 mice per group) according to the following table.
The administrations were made with 27-gauge IV needle.
During the treatment period, the implanted tumors were measured by caliper twice per week. The tumors were measured for the maximum width (X) and length (Y) and the tumor volumes (V) were calculated using the formula: V=(X^2Y)/2. The differences in the tumor volume between the control and treatment groups were analyzed for significance using the unpaired two-tailed Student's t-test. P<0.05 was considered to be statistically significant. The animal body weights were also weighed and recorded twice per week.

MCF-7 xenografts = details: mouse, in vivo
Description: MCF-7 breast cancer cells were purchased from ATCC. The cells were maintained in vitro as a monolayer culture in McCoy's 5a Medium. Fetal bovine serum was then added to the medium. The final concentration of fetal bovine serum was 10%. Cells were cultured at 37° C. and 5% CO2. The tumor cells were routinely sub-cultured twice weekly by trypsin-EDTA treatment. Cells in an exponential growth phase were harvested and counted for tumor inoculation.
75 24-30 g, 10-13 week old, female CD-1 nude mice were inoculated with the MCF-7 cells (5.0×10^6/mouse) orthotopically in mammary fat pad (0.1 mL/mouse). 60 days estrogen pellets was implanted the day prior to cell implantations. When the average tumor volume reached about 100-225 mm^3, 40 of the inoculated mice were selected based on tumor growth and randomly grouped into 5 treatment groups (8 mice per group) according to the following table. Mice that were not put on treatment were euthanized.
During the treatment period, the implanted tumors were measured by caliper twice per week. […] Animal body weights were also weighed and recorded 5× per week.

[5] = mouse, in vivo; for Tumor Conc.: female, SCID
[6] = system: human breast cancer cell line BT-474; test: Cytotoxicity assay (CellTiter-Glo, 72 h), BT-474; assay type: cell-based; details: BT-474, 72 hours, read-out: Cytotoxicity (IC50, nM) BT-474
Description: (§1) Cytotoxicity of SDC-TRAP molecules was determined in three cancer cell lines. […] 80 μL of CellTiter-Glo was added to each well, followed by room temperature incubation in the dark for 15 minutes. Cell was determined by luminescence. IC50 was calculated using XLfit™ software.

[7] = system: human urinary bladder cancer cell line RT-112; test: Cytotoxicity assay (CellTiter-Glo, 72 h), RT-112; assay type: cell-based; details: RT-112, 72 hours, read-out: Cytotoxicity (IC50, nM) RT-112
Description: as §1

[8] = system: human urinary bladder cancer cell line SW780; test: Cytotoxicity assay (CellTiter-Glo, 72 h), SW780; assay type: cell-based; details: SW780, 72 hours, read-out: Cytotoxicity (IC50, nM) SW-780
Description: as §1

[9] = system: Hsp90 client proteins (EGFR, MET, CDC2), Hsp70, DNA damage markers; test: Pharmacodynamics in SCLC xenograft tumors; assay type: in vivo
[10] = kinetic solubility in ganetespib placebo formulation, Lot6
[11] = kinetic solubility in ganetespib placebo formulation, Lot8
[12] = SCLC xenograft tumors, 24 hrs after drug exposure

CCc1c2c(nc3ccc(OC(=O)N4CCC(CCn5ccc6cc(-n7c(O)nnc7-c7cc(C(C)C)c(O)cc7O)ccc65)CC4)cc13)-c1cc3c(c(=O)n1C2)COC(=O)[C@]3(O)CC [SDC-TRAP-0063, 4,11-diethyl-4-hydroxy-3,14-dioxo-3,4,12,14-tetrahydro-1H-pyrano[3′,4′:6,7]indolizino[1,2-b]quinolin-9-yl 4-(2-(5-(3-(2,4-dihydroxy-5-isopropylphenyl)-5-hydroxy-4H-1,2,4-triazol-4-yl)-1H-indol-1-yl)ethyl)piperidine-1-carboxylate]
Mass Retention [1]: 18.7%
IC50 (HER2): 793 nM
solubility at 1 h ([2]; kinetic solubility in ganetespib placebo formulation (35% v/v tween 80, 40% v/v PEG-300, 25% v/v dehydrated alcohol), Lot6): 11.3 mg/mL (≈ 12.8 mM)
solubility at 1 day [2, 10]: 10.2 mg/mL (≈ 11.6 mM)
solubility at 3 days [2, 10]: 9.68 mg/mL (≈ 11 mM)
solubility at 7 days [2, 10]: 7.32 mg/mL (≈ 8.32 mM)
solubility at 1 h [2, 11]: 36.2 mg/mL (≈ 41.1 mM)
solubility at 1 day [2, 11]: 35.3 mg/mL (≈ 40.1 mM)
solubility at 3 days [2, 11]: 30 mg/mL (≈ 34.1 mM)
solubility at 7 days [2, 11]: 19.7 mg/mL (≈ 22.4 mM)
solubility over time (1 hr, 1 day, 3 days, 7 days) ([2]; lot 6 and lot 8, ganetespib placebo formulation (35% v/v tween 80, 40% v/v PEG-300, 25% v/v dehydrated alcohol), ambient): appear to decrease over time, although no any degradation was observed
H2AX phosphorylation ([3]; HCT-116 tumors, 24 hr): stimulate H2AX phosphorylation at 24 hr
HSP70 and Hsp90 client protein (EGFR, MET) expression ([3]; HCT-116 tumors, 24 hr exposure): induces HSP70 comparable to irinotecan but much less than ganetespib; also recorded: lack of effects on EGFR and MET stability
Hsp90 inhibition (conclusion from PD) ([3]; HCT-116 xenograft tumors): weak Hsp90 inhibitor
kinetics of H2AX phosphorylation ([3]; HCT-116 xenograft tumors): beginning at 8 hr and leveling off at 24 hr
tolerability ([4]; HCT-116 xenografts, Q7D×3): very well tolerated
antitumor activity in HCT-116 xenografts (FIG. 23) ([4]; Q7D×3, then drug-free period, SDC-TRAP-0063 200 and 100 mg/kg, SDC-TRAP-0046 94 mg/kg, irinotecan 67 mg/kg, SYN-01 100 mg/kg): remarkable and durable antitumor activity compared with irinotecan or ganetespib plus irinotecan; also recorded: better activity in inhibiting the growth of HCT-116 cells in vivo than either positive control group; also recorded: significant dose-dependent activity
safety profile (MCF-7 xenografts): good safety profile
Tumor Conc. ([5]; 6 h): 1.61 nmol/g of tissue
Tumor Conc. ([5]; 24 h): 0.203 nmol/g of tissue
Tumor Conc. ([5]; 48 h): 0.0188 nmol/g of tissue
Tumor Conc. ([5]; […]): 6.43 nmol/g of tissue
Plasma Conc. [5]: BQL
tumor targeting (tissue distribution in plasma, tumor and heart) ([5]; iv, 50 mg/kg): selectively targets and accumulates in tumor cells
IC50 [6]: 320 nM
IC50 [7]: 83 nM
IC50 [8]: 261 nM
kinetics of acetyl-histone H3 induction ([9]; SCLC xenograft tumors, 24, 72 and 96 hrs): gradual increase in H3ac levels, peaking at 96 hr
Hsp90 client proteins (EGFR, MET, CDC2) and Hsp70 expression [9, 12]: slight increase in Hsp70 with no impact on EGFR, MET or CDC2
markers for DNA damage (acetyl-histone H3, p53, p-H2AX) [9, 12]: dramatic increase in markers for DNA damage
phosphorylation of p53 ([9]; SCLC xenograft tumors, out to 96 hrs): induced by both agents, though more so with SDC-TRAP-0063
